For `CC(=O)C=Cc1cccc(C(F)(F)F)c1`, the logP (as a rule, a log measure of how a compound divides between an organic and an aqueous phase) was found to be 3.03.
`CC(=O)C=Cc1cccc(Br)c1`: the logP is 3.02.
For `CC(=O)C=Cc1ccccc1O` the value was 2.19; for `CC(=O)C=Cc1ccc(OC(C)=O)cc1`, 1.63.
For `CC(=O)C=Cc1cccc(F)c1` the value was 2.25; for `CC(=O)C=Cc1ccc(C(F)(F)F)cc1`, 3.13.
For `CC(=O)C=Cc1ccc(C#N)cc1` the value was 1.64; for `CC(=O)C=Cc1ccc(Cl)cc1`, 2.8.
Consider `CC(=O)C=Cc1ccc(O)cc1`, for which the logP worked out at 1.86.
For `N#Cc1ccc(C=CC(=O)C(F)(F)F)cc1` the value was 2.42; for `COc1ccc(C=CC(C)=O)cc1`, 2.25.
The figure for `CC(=O)C=Cc1ccccc1C(F)(F)F` is 3.14.
The figure for `CC(=O)C=Cc1ccc(F)cc1` is 2.22; for `COc1ccccc1C=CC(=O)C(F)(F)F` it is 3.39; for `O=C(C=Cc1cccc([N+](=O)[O-])c1)C(F)(F)F` it is 2.66.
Molecule `O=C(C=Cc1ccccc1)C(F)(F)F` showed a lipophilicity (logP) of 3.01.
The figure for `CC(=O)C=Cc1cccc(C)c1` is 2.68.
For `CC(=O)C=Cc1cccc([N+](=O)[O-])c1` the value was 1.88.
For the molecule `O=C(C=Cc1ccc(Cl)cc1)C(F)(F)F`, the log partition coefficient (logP) was 3.63.
Molecule `CC(=O)C=Cc1ccccc1C` yielded a lipophilicity (logP) of 2.6.
The molecule `CC(=O)C=Cc1ccccc1Cl` yielded a log partition coefficient (logP) of 2.85.
For `O=C(C=Cc1cccc(Cl)c1)C(F)(F)F` the value was 3.58; for `CC(=O)C=Cc1ccc(N(C)C)cc1`, 2.66; for `CCc1ccc(C=CC(C)=O)cc1`, 3.26.
For `CCOc1ccc(C=CC(C)=O)cc1` the value was 2.73; for `COc1cccc(C=CC(C)=O)c1`, 2.27; for `COc1cccc(C=CC(=O)C(F)(F)F)c1`, 3.05.
The figure for `N#Cc1cccc(C=CC(=O)C(F)(F)F)c1` is 2.45.
`CC(=O)C=Cc1ccccc1F` had a logP of 2.34.
For `O=C(C=Cc1ccccc1Cl)C(F)(F)F` the value was 3.5; for `CC(=O)C=Cc1cccc(C#N)c1`, 1.59; for `CC(=O)C=Cc1cccc(Cl)c1`, 2.81.
For `COc1ccccc1C=CC(C)=O` the value was 2.42; for `CC(=O)C=Cc1ccc(Br)cc1`, 3.03; for `CC(=O)C=Cc1ccc(C)cc1`, 2.65.
Molecule `COc1ccc(C=CC(=O)C(F)(F)F)cc1` came in with a logP of 3.33.
For `CC(=O)C=Cc1ccc([N+](=O)[O-])cc1` the value was 1.9.

Values taken from the OPERA property sets (Mansouri et al. 2018).
